Legend:
TLR8 = target: T1, TLR8 (Homo sapiens, UniProt Q9NR97); assay: HEK-BLUE-hTLR8 cell SEAP reporter assay (Quanti-Blue); type: cell-based; settings: HEK-BLUE-hTLR8 cells, 0.5 nM to 15 µM, 24 hours
T1 construct: host or cells: HEK293 (HEK-BLUE-hTLR8)
T1 sequence (Q9NR97 27-1041): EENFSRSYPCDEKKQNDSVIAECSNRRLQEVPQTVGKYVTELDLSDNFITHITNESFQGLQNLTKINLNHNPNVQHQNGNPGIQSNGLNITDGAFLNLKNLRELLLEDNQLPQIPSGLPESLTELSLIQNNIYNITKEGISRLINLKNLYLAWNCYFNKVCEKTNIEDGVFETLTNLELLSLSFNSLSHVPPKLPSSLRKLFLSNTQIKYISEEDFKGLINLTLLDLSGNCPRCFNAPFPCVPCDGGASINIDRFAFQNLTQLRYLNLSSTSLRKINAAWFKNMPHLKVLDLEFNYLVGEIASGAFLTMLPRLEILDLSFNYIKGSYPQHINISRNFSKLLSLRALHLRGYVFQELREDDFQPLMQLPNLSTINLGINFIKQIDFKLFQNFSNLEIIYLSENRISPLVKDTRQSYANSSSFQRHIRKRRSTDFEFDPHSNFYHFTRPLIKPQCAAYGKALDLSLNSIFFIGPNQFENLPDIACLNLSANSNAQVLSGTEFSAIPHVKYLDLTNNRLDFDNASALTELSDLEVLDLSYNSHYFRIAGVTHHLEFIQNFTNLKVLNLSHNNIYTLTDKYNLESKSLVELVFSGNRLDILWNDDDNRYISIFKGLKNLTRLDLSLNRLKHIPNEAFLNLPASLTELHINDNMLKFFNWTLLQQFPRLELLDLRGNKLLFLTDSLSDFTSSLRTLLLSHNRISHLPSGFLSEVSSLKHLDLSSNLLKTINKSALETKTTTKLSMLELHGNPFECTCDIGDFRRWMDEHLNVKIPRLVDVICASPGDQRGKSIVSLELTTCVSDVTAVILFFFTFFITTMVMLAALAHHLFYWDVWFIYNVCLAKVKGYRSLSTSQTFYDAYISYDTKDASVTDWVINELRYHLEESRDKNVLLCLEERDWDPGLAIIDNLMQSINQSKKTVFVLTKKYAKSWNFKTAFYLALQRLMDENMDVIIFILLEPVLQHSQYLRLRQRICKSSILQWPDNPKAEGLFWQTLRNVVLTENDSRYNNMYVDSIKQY
Description: (§1) In this experiment, the biological activity of TLR7 and TLR8 in the compound of formula I was detected using cell tests. This method was conducted in human embryonic kidney cells (HEK293) expressing TLR family members such as TLR4, TLR7, TLR8 or TLR9. TLR agonists activate TLRs, triggering the activation of downstream NF-kB, which in turn activates the secreted embryonic alkaline phosphatase (SEAP) reporter gene. The activity of SEAP was detected using the Quanti-Blue (InvivoGen) reagent, thereby reflecting the activities of TLR7 and TLR8 agonists.
(§2) The detailed experimental method was as follows: HEK-BLUE-hTLR7 and HEK-BLUE-hTLR8 cell lines were purchased from Invivogen Company and cultured in DMEM medium containing 4.5 g/L glucose (Sigma-Aldrich) and 10% fetal bovine serum under the conditions of temperature 37°C, humidity 95% and 5% CO2.
(§3) The compound was tested at a concentration ranging from 0.5 nM to 15 µM over a total of 10 concentration gradients. TLR7 or TLR8 agonists with known activity were added as positive controls, and 1 µL of DMSO was added as a negative control.
(§4) The cells were treated as follows: the cells were removed from the culture dish and centrifuged to remove the medium, and resuspended in a T-150 bottle with 10 mL of preheated PBS, 12 mL of preheated medium was added, and the cells were gently pipetted up and down and counted under a microscope. A 200,000/mL single-cell suspension was immediately prepared with medium and added to a 96-well plate at 200 µL/well (40,000/well). The final concentration of DMSO was 0.5%.
(§5) The compound was added and incubated in an incubator at 37°C, 5% CO2 for 24 hours.
(§6) A supernatant at 20 µL/well was aspirated into 180 µL of preheated Quanti-Blue at 37°C, incubated at 37°C for 1.5 hours, and detected for the absorbance (OD value) with a spectrophotometer at 650 nm. The formula for calculating the agonistic effect is as follows:
(§7) Effect % = (average OD value of the drug-administered group - average OD value of the DMSO group) / (average OD value of the positive drug group - average OD value of the DMSO group) × 100
(§8) Graphpad software was used to fit the concentration-effect curve, and EC50 was calculated. The test results are shown in Table 15 (A denotes < 250 nM, B denotes 250 nM-1 µM, C denotes 1 µM-2 µM, D denotes > 2 µM, and - denotes not listed or not tested): Table 15

TLR7 = target: T2, TLR7 (Homo sapiens, UniProt Q9NYK1); assay: HEK-BLUE-hTLR7 cell SEAP reporter assay (Quanti-Blue); type: cell-based; settings: HEK-BLUE-hTLR7 cells, 0.5 nM to 15 µM, 24 hours
T2 construct: host or cells: HEK293 (HEK-BLUE-hTLR7)
T2 sequence (Q9NYK1 27-1049): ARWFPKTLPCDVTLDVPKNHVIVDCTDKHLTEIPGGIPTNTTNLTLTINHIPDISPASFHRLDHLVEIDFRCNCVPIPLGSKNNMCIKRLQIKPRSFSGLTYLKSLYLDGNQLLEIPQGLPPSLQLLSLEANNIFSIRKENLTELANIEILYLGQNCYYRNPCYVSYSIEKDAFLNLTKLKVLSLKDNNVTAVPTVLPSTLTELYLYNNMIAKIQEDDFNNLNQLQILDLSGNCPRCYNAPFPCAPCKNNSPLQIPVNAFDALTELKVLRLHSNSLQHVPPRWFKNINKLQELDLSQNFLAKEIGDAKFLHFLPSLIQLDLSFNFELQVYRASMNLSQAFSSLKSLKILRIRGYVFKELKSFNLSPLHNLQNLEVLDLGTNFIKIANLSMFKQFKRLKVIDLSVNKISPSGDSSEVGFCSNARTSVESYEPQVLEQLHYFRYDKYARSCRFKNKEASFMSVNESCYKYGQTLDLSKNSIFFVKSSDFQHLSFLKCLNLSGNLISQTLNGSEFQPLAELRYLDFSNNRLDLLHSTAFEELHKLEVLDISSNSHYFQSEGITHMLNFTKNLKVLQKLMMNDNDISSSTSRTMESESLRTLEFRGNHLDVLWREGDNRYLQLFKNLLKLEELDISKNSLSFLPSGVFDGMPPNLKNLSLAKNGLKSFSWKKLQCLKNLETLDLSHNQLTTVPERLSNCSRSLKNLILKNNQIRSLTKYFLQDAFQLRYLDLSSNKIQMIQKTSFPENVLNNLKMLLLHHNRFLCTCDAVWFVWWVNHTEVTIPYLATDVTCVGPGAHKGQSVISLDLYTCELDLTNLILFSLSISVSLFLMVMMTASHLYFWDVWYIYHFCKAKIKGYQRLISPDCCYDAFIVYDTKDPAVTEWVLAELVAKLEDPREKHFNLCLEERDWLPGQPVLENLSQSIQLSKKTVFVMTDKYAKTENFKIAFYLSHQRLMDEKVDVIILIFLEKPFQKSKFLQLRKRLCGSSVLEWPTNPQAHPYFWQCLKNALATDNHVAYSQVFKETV
Description: as §1, §2, §3, §4, §5, §6, §7, §8

CCCN(CCC)C(=O)C1=Cc2ccc(C3(C(=O)Nc4cnc5c(c4)CNCC5)CC3)cc2N=C(N)C1 [Compound 1, 2-amino-N,N-dipropyl-8-(1-((5,6,7,8-tetrahydro-1,6-naphthyridin-3-yl)carbamoyl)cyclopropyl)-3H-benzo[b]azepine-4-formamide]
EC50 (TLR8): < 250 nM
EC50 (TLR7): > 2000 nM

CCCN(CCO)C(=O)C1=Cc2ccc(C3(C(=O)Nc4cnc5c(c4)CNCC5)CC3)cc2N=C(N)C1 [Compound 2, 2-amino-N-(2-hydroxyethyl)-N-propyl-8-(1-((5,6,7,8-tetrahydro-1,6-naphthyridin-3-yl)carbamoyl)cyclopropyl)-3H-benzo[b]azepine-4-formamide]
EC50 (TLR8): 250 to 1000 nM
EC50 (TLR7): > 2000 nM

CCCN(CCC)C(=O)C1=Cc2c(F)cc(C3(C(=O)Nc4cnc5c(c4)CNCC5)CC3)cc2N=C(N)C1 [Compound 3, 2-amino-6-fluoro-N,N-dipropyl-8-(1-((5,6,7,8-tetrahydro-1,6-naphthyridin-3-yl)carbamoyl)cyclopropyl)-3H-benzo[b]azepine-4-formamide]
EC50 (TLR8): < 250 nM
EC50 (TLR7): > 2000 nM

CCCN(CCO)C(=O)C1=Cc2c(F)cc(C3(C(=O)Nc4cnc5c(c4)CNCC5)CC3)cc2N=C(N)C1 [Compound 6, 2-amino-6-fluoro-N-(2-hydroxyethyl)-N-propyl-8-(1-((5,6,7,8-tetrahydro-1,6-naphthyridin-3-yl)carbamoyl)cyclopropyl)-3H-benzo[b]azepine-4-formamide]
EC50 (TLR8): 250 to 1000 nM
EC50 (TLR7): > 2000 nM

CCCN(CCO)C(=O)C1=Cc2ccc(C3(C(=O)Nc4cncc(CN)c4)CC3)cc2N=C(N)C1 [Compound 7, 2-amino-8-(1-((5-(aminomethyl)pyridin-3-yl)carbamoyl)cyclopropyl)-N-(2-hydroxyethyl)-N-propyl-3H-benzo[b]azepine-4-formamide]
EC50 (TLR8): < 250 nM
EC50 (TLR7): > 2000 nM

From patent EP4596536A1 (Shanghai de Novo Pharmatech Co., Ltd., priority 2022, dated 2024)
